{
  "source": "patent US20200030349A1",
  "about": "“PHYSIOLOGICALLY ACTIVE PREPARATION COMPRISING N-ACETYL-GLUCOSAMINE FOR THE TREATMENT OF BACK PAIN” (Natural Products & Drugs GmbH, priority 2017, published 2020)",
  "key": {"water solubility": {"assay": "water solubility", "type": "physicochemical", "from_the_text": "(§1) Advantageously according to the invention, the composition for use in a method for the prophylaxis and/or treatment of back pain and the composition comprising at least two components are in the form of an oral dosage form. An oral dosage form is easy to handle and is accepted by a user without problems. In addition, the user can easily take the composition themself. It is preferably a solid form of administration, in particular in the form of capsules, tablets, dragées, granules and powders. Addition of the composition to functional foods, such as a bar for healthy nutrition, is also possible. Alternatively or in addition, a liquid dosage form, in particular in the form of drops, stable solutions and/or juices, is also possible."}, "stability in solution": {"assay": "stability in solution", "type": "physicochemical", "settings": "over pH range", "from_the_text": "as §1"}},
  "data": [
    {"smiles": "CC(=O)N[C@H]1C(O)O[C@H](CO)[C@@H](O)[C@@H]1O", "note": "(stereo partly drawn) [N-acetyl-glucosamine, N-acetyl-D-glucosamine]", "values": [
      {"measurement": "water solubility", "setting": "water solubility", "result": "good water solubility"},
      {"measurement": "stability in solution", "setting": "stability in solution", "result": "stable in solution over a wide pH range"}
    ]}
  ]
}
